This assay can be described thus: In vitro inhibition of calcium phosphate crystallization in human plasma (spectrophotometric). The assay is classed as biochemical. The conditions noted are these: 0-100 μM, 1.5 mM phosphate, 12.5 mM calcium, pH 7.4, 30 min, rt, read-out: Relative Potency (EC50, inhibition of calcium phosphate crystallization). As to the method: The in vitro efficacy of the IP4-4,6 substituted derivatives (e.g., Compounds 1 to 53) of the invention on the inhibition of calcium phosphate crystallization in human plasma samples was evaluated according to a spectrophotometric assay previously described in the art (Ferrer M, et al., Sci Rep 2017; 7:6858, doi:10.1038/s41598-017-07203-x).
A 96-well plate was employed. Plasma was spiked (1 volume of the IP4-4,6 substituted derivatives of the invention per 19 volumes of plasma) with increasing concentrations of the derivatives in the range of 0-100 μM. Plasma was then centrifuged at 10,000 g at rt and subsequently mixed with a mixture of 5 mM hydrogen phosphate and 41.67 mM calcium to attain final concentrations of 1.5 mM phosphate and 12.5 mM calcium, respectively. All reagent solutions were filtered, and pH adjusted to 7.4.
Crystallization of calcium phosphate was monitored spectrophotometrically for 30 min at rt by measuring the increments in absorbance at 550 nm using the Biotek Powerwave XS Microplate spectrophotometer (BioTek Instruments, Inc., Winooski, VT, US). The plate was incubated at rt in an orbital shaker and absorbance measured every 3 min.
Plasma crystallization was assessed based on slope measurement in the linear range between 6 and 24 min from plots of increase in absorbance versus logarithm of time. The efficacy of different myo-inositol phosphates derivatives in preventing in vitro formation of calcium phosphate crystals was assessed in human plasma samples using the slopes obtained between 6- and 24-min. Inhibition of crystallization was measured by comparing the slopes of the control sample (blank plasma) with those of samples containing the inhibitor as shown below: […]

Among the data in patent publication US20260337212A1, “IP4-4,6 SUBSTITUTED DERIVATIVE COMPOUNDS FOR USE IN THE TREATMENT, INHIBITION OF PROGRESSION, AND PREVENTION OF ECTOPIC CALCIFICATION” (SANIFIT THERAPEUTICS, S.A., priority 2022, published 2026) are EC50 values, retold here.

pEC50: −log10 of the molar value. Structures can show the parent of a compound that is named as a salt.

As for `COCc1cn(CCCCCCOC2C(OP(=O)(O)O)C(OCCCCCCn3cc(C(=O)O)nn3)C(OP(=O)(O)O)C(OP(=O)(O)O)C2OP(=O)(O)O)nn1` (stereo not shown) [Compound 41, 4-O-(6-(4-carboxy-1H-1,2,3-triazol-1-yl)hexyl)-6-O-(6-(4-(methoxymethyl)-1H-1,2,3-triazol-1-yl)hexyl)-myo-inositol-1,2,3,5-tetrakis(phosphate) nonasodium salt], the pEC50 was at least 5.30. As for `O=C(O)CCCOC1C(OP(=O)(O)O)C(OCCCC(=O)O)C(OP(=O)(O)O)C(OP(=O)(O)O)C1OP(=O)(O)O` (stereo not shown) [Compound 52, 4,6-O-bis(3-carboxypropyl)-myo-inositol-1,2,3,5-tetrakis(phosphate) decasodium salt], the pEC50 is at least 5.30.

For the compound “4,6-O-bis(4-amino-4-oxobutyl)-myo-inositol-1,2,3,5-tetrakis(phosphate) octasodium salt [Compound 26]”, the pEC50 is at least 5.30.

For “4,6-O-bis(3-(4-(2-carboxyethyl)-1H-1,2,3-triazol-1-yl)propyl)-myo-inositol-1,2,3,5-tetrakis(phosphate) decasodium salt [Compound 35]”, the pEC50 is at least 5.30. Consider “4,6-O-bis(6-(4-(methoxymethyl)-1H-1,2,3-triazol-1-yl) hexyl)-myo-inositol-1,2,3,5-tetrakis(phosphate) octasodium salt [Compound 39]”, for which the negative-log EC50 (pEC50) was at least 5.30.

Take `O=P(O)(O)O[C@@H]1[C@@H](OCCCC(F)(F)F)[C@H](OP(=O)(O)O)[C@H](OP(=O)(O)O)[C@H](OP(=O)(O)O)[C@H]1OCCCC(F)(F)F` [Compound 22, 4,6-O-bis(4,4,4-trifluorobutyl)-myo-inositol-1,2,3,5-tetrakis(phosphate) octasodium salt]: the pEC50 is at least 5.30. Consider “4,6-O-bis(3-methoxypropyl)-myo-inositol-1,2,3,5-tetrakis(phosphate) octasodium salt [Compound 10]”, for which the pEC50 was at least 5.30. “4,6-O-bis(19-methoxynonadec-10-yn-1-yl)-myo-inositol-1,2,3,5-tetrakis(phosphate) octasodium salt [Compound 20]”: the pEC50 was at least 5.30.

Take “4,6-O-bis(6,6,6-trifluorohexyl)-myo-inositol-1,2,3,5-tetrakis(phosphate) octasodium salt [Compound 23]”: the pEC50 was under 5.00. “4,6-O-bis(2-(4-acetylpiperazin-1-yl)ethyl)-myo-inositol-1,2,3,5-tetrakis(phosphate) octasodium salt [Compound 34]”: the pEC50 was 5.00 to 5.30.

Regarding `NCCCOC1C(OP(=O)(O)O)C(OCCCN)C(OP(=O)(O)O)C(OP(=O)(O)O)C1OP(=O)(O)O` (stereo not shown) [Compound 13, 4,6-O-bis(3-aminopropyl)-myo-inositol-1,2,3,5-tetrakis(phosphate) octasodium salt], the pEC50 was 5.00 to 5.30. The figure for `COC(=O)NCCCCCOC1C(OP(=O)(O)O)C(OCCCCCNC(=O)OC)C(OP(=O)(O)O)C(OP(=O)(O)O)C1OP(=O)(O)O` (stereo not shown) [Compound 25, 4,6-O-bis(5-((methoxycarbonyl)amino)pentyl)-myo-inositol-1,2,3,5-tetrakis(phosphate) octasodium salt] is at least 5.30. The same measure for “4,6-O-bis(4-methylpentyl)-myo-inositol-1,2,3,5-tetrakis(phosphate) octasodium salt [Compound 21]”: under 5.00. With “4,6-O-bis((1-(3-methoxypropyl)-1H-1,2,3-triazol-4-yl)methyl)-myo-inositol-1,2,3,5-tetrakis(phosphate) octasodium salt [Compound 32]”, the pEC50 is at least 5.30. Turning to `COc1ccc(CCCOC2C(OP(=O)(O)O)C(OCCCc3ccc(OC)cc3)C(OP(=O)(O)O)C(OP(=O)(O)O)C2OP(=O)(O)O)cc1` (stereo not shown) [Compound 43, 4,6-O-bis(3-(4-methoxyphenyl)propyl)-myo-inositol-1,2,3,5-tetrakis(phosphate) octasodium salt], the pEC50 is 5.00 to 5.30.

Take `CCCCCCCCCCOC1C(OP(=O)(O)O)C(OCCCCCCCCCC)C(OP(=O)(O)O)C(OP(=O)(O)O)C1OP(=O)(O)O` (stereo not shown) [Compound 2, 4,6-O-didecyl-myo-inositol-1,2,3,5-tetrakis(phosphate) octasodium salt]: the pEC50 was under 5.00. The figure for `CCCCCOC1C(OP(O)(O)=S)C(OCCCCC)C(OP(O)(O)=S)C(OP(O)(O)=S)C1OP(O)(O)=S` (stereo not shown) [Compound 50, 4,6-O-dipentyl-myo-inositol-1,2,3,5-tetrakis(thiophosphate) octasodium salt] is under 5.00; for “4,6-O-dipropyl-myo-inositol-1,2,3,5-tetrakis(phosphate) octasodium salt [Compound 4]” it is at least 5.30. The same measure for `O=C(NCCCCCOC1C(OP(=O)(O)O)C(OCCCCCNC(=O)c2ccccc2)C(OP(=O)(O)O)C(OP(=O)(O)O)C1OP(=O)(O)O)c1ccccc1` (stereo not shown) [Compound 48, 4,6-O-bis(5-benzamidopentyl)-myo-inositol-1,2,3,5-tetrakis(phosphate) octasodium salt]: under 5.00; for `COCCCCCCCOC1C(OP(=O)(O)O)C(OCCCCCCCOC)C(OP(=O)(O)O)C(OP(=O)(O)O)C1OP(=O)(O)O` (stereo not shown) [Compound 11, 4,6-O-bis(7-methoxyheptyl)-myo-inositol-1,2,3,5-tetrakis(phosphate) octasodium salt]: under 5.00; for “4,6-O-bis(5-methoxypentyl)-myo-inositol-1,2,3,5-tetrakis(phosphate) octasodium salt [Compound 9]”: at least 5.30.

As to `O=P(O)(O)OC1C(OCCCCCn2cncn2)C(OP(=O)(O)O)C(OP(=O)(O)O)C(OP(=O)(O)O)C1OCCCCCn1cncn1` (stereo not shown) [Compound 17, 4,6-O-bis(5-(1H-1,2,4-triazol-1-yl)pentyl)-myo-inositol-1,2,3,5-tetrakis(phosphate) octasodium salt], the pEC50 was under 5.00. The same measure for “4,6-O-bis((3-(4-carboxybutanamido)propyl))-myo-inositol-1,2,3,5-tetrakis(phosphate) decasodium salt [Compound 45]”: at least 5.30; for `O=C(NCCCCCOC1C(OP(=O)(O)O)C(OCCCCCNC(=O)c2cccs2)C(OP(=O)(O)O)C(OP(=O)(O)O)C1OP(=O)(O)O)c1cccs1` (stereo not shown) [Compound 49, 4,6-O-bis(5-(thiophene-2-carboxamido)pentyl)-myo-inositol-1,2,3,5-tetrakis(phosphate) octasodium salt]: 5.00 to 5.30; for `O=P(O)(O)OC1C(OCCCCCn2cccn2)C(OP(=O)(O)O)C(OP(=O)(O)O)C(OP(=O)(O)O)C1OCCCCCn1cccn1` (stereo not shown) [Compound 16, 4,6-O-bis(5-(1H-pyrazol-1-yl)pentyl)-myo-inositol-1,2,3,5-tetrakis(phosphate) octasodium salt]: at least 5.30. As to “4,6-O-bis(3-((methoxycarbonyl)amino)propyl)-myo-inositol-1,2,3,5-tetrakis(phosphate) octasodium salt [Compound 24]”, the pEC50 was under 5.00. The figure for `O=P(O)(O)OC1C(OCCCCCCCCCCO)C(OP(=O)(O)O)C(OP(=O)(O)O)C(OP(=O)(O)O)C1OCCCCCCCCCCO` (stereo not shown) [Compound 7, 4,6-O-bis(10-hydroxydecyl)-myo-inositol-1,2,3,5-tetrakis(phosphate) octasodium salt] is under 5.00; for `COCc1cn(CCCCOC2C(OP(=O)(O)O)C(OCCCCn3cc(COC)nn3)C(OP(=O)(O)O)C(OP(=O)(O)O)C2OP(=O)(O)O)nn1` (stereo not shown) [Compound 37, 4,6-O-bis(4-(4-(methoxymethyl)-1H-1,2,3-triazol-1-yl)butyl)-myo-inositol-1,2,3,5-tetrakis(phosphate) octasodium salt] it is 5.00 to 5.30. `C#CCOC1C(OP(=O)(O)O)C(OCC#C)C(OP(=O)(O)O)C(OP(=O)(O)O)C1OP(=O)(O)O` (stereo not shown) [Compound 53, 4,6-O-Dipropargyl-myo-inositol-1,2,3,5-tetrakis(phosphate) octasodium salt]: the pEC50 was at least 5.30. On to `CCCNC(=O)NCCCCCOC1C(OP(=O)(O)O)C(OCCCCCNC(=O)NCCC)C(OP(=O)(O)O)C(OP(=O)(O)O)C1OP(=O)(O)O` (stereo not shown) [Compound 30, 4,6-O-bis(5-(3-propylureido)pentyl)-myo-inositol-1,2,3,5-tetrakis(phosphate) octasodium salt], for which the pEC50 is at least 5.30. With `COCCCCCCCCCOC1C(OP(=O)(O)O)C(OCCCCCCCCCOC)C(OP(=O)(O)O)C(OP(=O)(O)O)C1OP(=O)(O)O` (stereo not shown) [Compound 12, 4,6-O-bis(9-methoxynonyl)-myo-inositol-1,2,3,5-tetrakis(phosphate) octasodium salt], the negative logarithm of the EC50 (pEC50) was under 5.00.

“4,6-O-diheptyl-myo-inositol-1,2,3,5-tetrakis(phosphate) octasodium salt [Compound 5]”: the pEC50 was at least 5.30. For the compound “4,6-O-bis(3-(4-(methoxymethyl)-1H-1,2,3-triazol-1-yl)propyl)-myo-inositol-1,2,3,5-tetrakis(phosphate) octasodium salt [Compound 36]”, the pEC50 is 5.00 to 5.30. With “4,6-O-bis(10-carboxydecyl)-myo-inositol-1,2,3,5-tetrakis(phosphate) decasodium salt [Compound 19]”, the pEC50 was under 5.00.

Broadly, the pEC50 is the EC50 on a negative log10 scale, so that one unit is a factor of ten.
